Laboratory results taken from the supplement of paper PMC11451515.

Test system: SEM cells
Test: cell viability relative to DMSO control; higher = less cytotoxic
Conditions: 48 h
Outline: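 Three leukemia lines were tested: NOMO1 and SEM at 500 cells/well and P12-Ichikawa at 1000 cells/well. Each was adapted for at least four passages in each medium and seeded in 5 μl in 1536-well plates, and library compounds in DMSO were pin-dosed from 47 μM to 0.79 nM in 11 threefold steps. After 48 h at 37°C, CellTiter-Glo One luminescence was read. Viability is a percentage relative to DMSO wells on each plate, with cell-free wells as background.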

[1] = HPLM + 10% dialyzed FBS, 0.000781 µM
[2] = HPLM + 10% dialyzed FBS, 0.00234 µM
[3] = HPLM + 10% dialyzed FBS, 0.00702 µM
[4] = HPLM + 10% dialyzed FBS, 0.0211 µM
[5] = HPLM + 10% dialyzed FBS, 0.0632 µM
[6] = HPLM + 10% dialyzed FBS, 0.19 µM
[7] = HPLM + 10% dialyzed FBS, 0.569 µM
[8] = HPLM + 10% dialyzed FBS, 1.71 µM
[9] = HPLM + 10% dialyzed FBS, 5.12 µM
[10] = HPLM + 10% dialyzed FBS, 15.4 µM
[11] = HPLM + 10% dialyzed FBS, 46.1 µM
[12] = RPMI 5 mM glucose + 10% FBS, 0.000781 µM
[13] = RPMI 5 mM glucose + 10% FBS, 0.00234 µM
[14] = RPMI 5 mM glucose + 10% FBS, 0.00702 µM
[15] = RPMI 5 mM glucose + 10% FBS, 0.0211 µM
[16] = RPMI 5 mM glucose + 10% FBS, 0.0632 µM
[17] = RPMI 5 mM glucose + 10% FBS, 0.19 µM
[18] = RPMI 5 mM glucose + 10% FBS, 0.569 µM
[19] = RPMI 5 mM glucose + 10% FBS, 1.71 µM
[20] = RPMI 5 mM glucose + 10% FBS, 5.12 µM
[21] = RPMI 5 mM glucose + 10% FBS, 15.4 µM
[22] = RPMI 5 mM glucose + 10% FBS, 46.1 µM
[23] = RPMI 5 mM glucose + 10% dialyzed FBS, 0.000781 µM
[24] = RPMI 5 mM glucose + 10% dialyzed FBS, 0.00234 µM
[25] = RPMI 5 mM glucose + 10% dialyzed FBS, 0.00702 µM
[26] = RPMI 5 mM glucose + 10% dialyzed FBS, 0.0211 µM
[27] = RPMI 5 mM glucose + 10% dialyzed FBS, 0.0632 µM
[28] = RPMI 5 mM glucose + 10% dialyzed FBS, 0.19 µM
[29] = RPMI 5 mM glucose + 10% dialyzed FBS, 0.569 µM
[30] = RPMI 5 mM glucose + 10% dialyzed FBS, 1.71 µM
[31] = RPMI 5 mM glucose + 10% dialyzed FBS, 5.12 µM
[32] = RPMI 5 mM glucose + 10% dialyzed FBS, 15.4 µM
[33] = RPMI 5 mM glucose + 10% dialyzed FBS, 46.1 µM

Structure (SMILES)	cell viability [1] [%]	cell viability [2] [%]	cell viability [3] [%]	cell viability [4] [%]	cell viability [5] [%]	cell viability [6] [%]	cell viability [7] [%]	cell viability [8] [%]	cell viability [9] [%]	cell viability [10] [%]	cell viability [11] [%]	cell viability [12] [%]	cell viability [13] [%]	cell viability [14] [%]	cell viability [15] [%]	cell viability [16] [%]	cell viability [17] [%]	cell viability [18] [%]	cell viability [19] [%]	cell viability [20] [%]	cell viability [21] [%]	cell viability [22] [%]	cell viability [23] [%]	cell viability [24] [%]	cell viability [25] [%]	cell viability [26] [%]	cell viability [27] [%]	cell viability [28] [%]	cell viability [29] [%]	cell viability [30] [%]	cell viability [31] [%]	cell viability [32] [%]	cell viability [33] [%]
Cc1c(N)nc([C@H](CC(N)=O)NC[C@@H](N)C(N)=O)nc1C(=O)N[C@H](C(=O)N[C@@H](C)[C@H](O)[C@@H](C)C(=O)N[C@@H](C(=O)NCCc1nc(-c2nc(C(=O)NCCC[S+](C)C)cs2)cs1)[C@@H](C)O)C(O[C@H]1O[C@H](CO)[C@H](O)[C@@H](O)[C@H]1O[C@H]1O[C@H](CO)[C@@H](O)[C@H](OC(N)=O)[C@@H]1O)c1c[nH]cn1 (some centres undefined)	110	115	115	113	101	128	121	82.9	61.9	67.2	74.2	99.2	109	107	114	89.7	121	113	61.8	64.9	29.7	17.7	89.6	110	99.3	111	88.4	113	91.5	81.8	54.3	16.9	14.8
C[C@H](CCC(=O)O)[C@H]1CC[C@H]2[C@@H]3[C@H](O)C[C@@H]4C[C@H](O)CC[C@]4(C)[C@H]3CC[C@]12C	79.7	80.7	96.3	80.3	99.9	84	95	92.5	93.5	84.1	75.5	75.4	81.9	90.3	96.9	87.6	76.5	91	80.2	99.1	81.9	67	87.5	93.7	105	95	85.5	79.4	91.4	92.2	95.3	95.1	79.7
CCc1ccc(OCc2ccccc2C(=O)Nc2ccc3nc(C)cc(N)c3c2)cc1	75.2	102	98.9	90.2	104	117	110	109	26.6	11.3	8.33	98.5	102	98.9	99.3	112	111	122	116	109	20.7	7.66	94.4	107	91.4	107	103	114	111	102	111	22.1	7.91
O=C(O)c1ccc(O)c2ncc(N3CCOCC3)cc12	101	117	128	110	103	102	116	99.8	73.5	99.2	11.4	106	109	109	115	112	94.1	106	99.3	65.9	84	7.59	94.8	98.4	96	99.6	95	86.2	99	87.4	46.4	68.9	7.27
O=C1NC(=O)/C(=C/c2ccc3nccnc3c2)S1	117	123	128	114	120	113	109	105	97	104	102	120	136	115	126	136	120	128	115	73	99.5	103	–	–	–	–	–	–	–	–	–	–	–
CCCCCNC(=N)N/N=C/c1c[nH]c2ccc(OC)cc12	112	119	114	128	108	130	115	124	106	48	31.2	–	–	–	–	–	–	–	–	–	–	–	111	118	115	110	117	117	130	122	99.1	56.7	36.6
CC(C)C1CCC(C(=O)N[C@H](Cc2ccccc2)C(=O)O)CC1 (some centres undefined)	92.5	93.8	91.7	108	71.1	26.3	82.7	97.6	85.2	80.3	78.5	108	94.1	90	112	80.9	21.2	62.7	85.6	98	95.4	77.8	108	104	103	102	75.4	21.7	84.3	88.7	98.5	93.1	96.8
